Source: patent publication US20250213601A1 (priority 2022, published 2025)
Values joined by “and” are separate entries in the source; they are usually repeats but may differ in a detail not shown here. Identical values can stand only once.

Assays:
West Nile virus (MRM61C) = settings: cited from earlier work
[1] = Ivermectin concentration in the blood plasma of cattle after oral administration; assay type: in vivo; settings: oral 600 μg/kg (per pure IVM)
Procedure: Cattle were divided into 2 groups of 1 animals each. Free Ivermectin (IVM) and compound of FORMULA I were orally administered to starving cattle. Blood samples were withdrawn from the jugular vein at appropriate time intervals after administration (0, 4, 20 h).
Fluorescence detection was set at an excitation and emission wavelength of 365 and 475 nm, respectively. The mobile phase consisted of acetonitrile, methanol and distilled water (50:45:5, v/v/v), running through the column at a flow rate of 1.5 ml/minute. The chromatographic analysis was operated at 25° C. Sample preparation (100 μl plasma) was done by a single stepprotein precipitation with acetonitrile, followed by derivatization with 100 μl of N-methylimidazole solution in acetonitrile (1:1, v/v) and 150 μl of trifluoroacetic anhydrous solution in acetonitrile (1:2, v/v). Calibration curve over the concentration range of 20-8,000 ng/ml plasma was linear with correlation coefficient better than 0.995.
All the blood samples were centrifuged at 3000 rpm for 15 min to obtain […]. Cattle plasma samples (100 μL each) were placed in 1.5 mL Eppendorf tubes, and then the samples underwent protein precipitation. The samples were vortexed for 1 min and centrifuged at 13,400 rpm for 10 min 20 μL of the supernatant was injected into the HPLC.

[2] = tested on: Influenza VLPs (avian influenza A); settings: 10 μM; cited from earlier work
Dengue virus (EDEN-4) = settings: cited from earlier work
Adenovirus (HAdV-C5) = settings: cited from earlier work
Dengue virus (NGC) = settings: cited from earlier work
Dengue virus (EDEN-3) = settings: cited from earlier work
[3] = standard tablet form, for 5 days; cited from earlier work
Pseudorabies virus = settings: estimated; read-out: est. EC50; cited from earlier work
Dengue virus (EDEN-2) = settings: cited from earlier work
[4] = tested on: Hendra (Hendra virus/Australia/Horse); settings: estimated; read-out: est. EC50; cited from earlier work
Syrian hamsters = assay: Oral toxicity of solid dispersion; assay type: in vivo; settings: per pure ivermectin, FORMULA I compound per Example 1 No 2 (apple pectin 1:5)
SARS-CoV-2 = settings: in vitro, inhibition of replication; cited from earlier work
Caco-2 cell line = assay: Permeability through a monolayer of Caco-2 cells; settings: bottom of Transwell well, 3 μM (per pure IVM) in HBSS on top
West Nile virus (NY99) = settings: cited from earlier work
[5] = tested on: Zika virus (Asian/Cook Islands); settings: cited from earlier work

CCC(C)C1OC2(CCC1C)CC1CC(CC=C(C)C(OC3CC(OC)C(OC4CC(OC)C(O)C(C)O4)C(C)O3)C(C)C=CC=C3COC4C(O)C(C)=CC(C(=O)O1)C34O)O2 (centres unmarked) [ivermectin, Ivermectin]
EC50 (West Nile virus (MRM61C)): 1000 nM and 500 nM | C1, 0 h (ivermectin concentration in plasma) ([1]; 0 h, FORMULA I compound per Example 1 No 1 (polyvinylpyrrolidone 1:10), IVM = milled free ivermectin): 0 ± 0.15 ng/mL | C2, 4 h (ivermectin concentration in plasma) ([1]; 4 h, FORMULA I compound per Example 1 No 1): 307.3 ± 46.1 ng/mL | C3, 20 h (ivermectin concentration in plasma) ([1]; 20 h, FORMULA I compound per Example 1 No 1): 104.4 ± 15.6 ng/mL | Cmax ([1]; FORMULA I compound per Example 1 No 1): 350 ± 50 nM | Inhibition [2]: 10 μM total inhibition | EC50 (Dengue virus (EDEN-4)): 1900 nM | EC50 (Adenovirus (HAdV-C5)): 2500 nM | Inhibition (Dengue virus (NGC); 50 μM): total inhibition | EC50 (Dengue virus (NGC)): 400 nM and 600 nM | EC50 (Dengue virus (EDEN-3)): 1700 nM | lung Cmax [3]: 400 to 900 nM | EC50 (Pseudorabies virus): ~800 nM | EC50 (Dengue virus (EDEN-2)): 2100 nM and 1700 nM | EC50 [4]: ~2000 nM | LD50 (Syrian hamsters): 62 mg/kg | EC50 (SARS-CoV-2): 2400 nM and 2200 nM and 2800 nM | EC90 (SARS-CoV-2): 5000 nM | Concentrartion of IVM (Caco-2 cell line; 20 min, FORMULA I compound per Example 1 No 2 (apple pectin 1:5)): 50 ng/mL | Concentrartion of IVM (Caco-2 cell line; 40 min, FORMULA I compound per Example 1 No 2): 90 ng/mL | Concentrartion of IVM (Caco-2 cell line; 60 min, FORMULA I compound per Example 1 No 2): 150 ng/mL | Concentrartion of IVM (Caco-2 cell line; 80 min, FORMULA I compound per Example 1 No 2): 190 ng/mL | Concentrartion of IVM (Caco-2 cell line; 100 min, FORMULA I compound per Example 1 No 2): 210 ng/mL | Concentrartion of IVM (Caco-2 cell line; 120 min, FORMULA I compound per Example 1 No 2): 250 ng/mL | EC50 (West Nile virus (NY99)): 4000 nM | EC50 [5]: 1300 nM and 1600 nM
